One compound from PMC12990037, “Discovery of Two Structurally Distinct Classes of Inhibitors Targeting the Nuclease MUS81 and Enhancing Efficacy of Chemotherapy in Cancer Cells” (Journal of Medicinal Chemistry, 2026) can be followed below.

As a reminder, the IC50 is the concentration that gives 50% inhibition. A higher IC50 goes with lower potency.

The target in one test is T1, MUS81–EME1 (Homo sapiens, UniProt Q96NY9).
T1 construct: The MUS81–EME1 full-length expression plasmid was obtained from Stephen C; West; made in house; host or cells: Escherichia coli
T1 sequence (Q96NY9 1-551): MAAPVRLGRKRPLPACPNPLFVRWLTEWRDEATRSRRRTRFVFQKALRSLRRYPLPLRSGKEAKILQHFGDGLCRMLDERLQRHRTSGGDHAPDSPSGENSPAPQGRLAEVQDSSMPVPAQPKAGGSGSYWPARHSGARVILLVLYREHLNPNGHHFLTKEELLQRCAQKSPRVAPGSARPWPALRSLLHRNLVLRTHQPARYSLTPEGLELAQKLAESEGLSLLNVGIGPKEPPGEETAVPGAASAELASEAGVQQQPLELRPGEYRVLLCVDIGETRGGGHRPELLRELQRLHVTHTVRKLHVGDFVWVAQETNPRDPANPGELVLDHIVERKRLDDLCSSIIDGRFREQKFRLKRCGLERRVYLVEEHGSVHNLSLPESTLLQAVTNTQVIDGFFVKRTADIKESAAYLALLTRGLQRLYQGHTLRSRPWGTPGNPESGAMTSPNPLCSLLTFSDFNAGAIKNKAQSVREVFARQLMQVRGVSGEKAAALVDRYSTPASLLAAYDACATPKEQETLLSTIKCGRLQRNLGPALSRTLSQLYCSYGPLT
T1 sequence (Q96AY2 1-570 partner): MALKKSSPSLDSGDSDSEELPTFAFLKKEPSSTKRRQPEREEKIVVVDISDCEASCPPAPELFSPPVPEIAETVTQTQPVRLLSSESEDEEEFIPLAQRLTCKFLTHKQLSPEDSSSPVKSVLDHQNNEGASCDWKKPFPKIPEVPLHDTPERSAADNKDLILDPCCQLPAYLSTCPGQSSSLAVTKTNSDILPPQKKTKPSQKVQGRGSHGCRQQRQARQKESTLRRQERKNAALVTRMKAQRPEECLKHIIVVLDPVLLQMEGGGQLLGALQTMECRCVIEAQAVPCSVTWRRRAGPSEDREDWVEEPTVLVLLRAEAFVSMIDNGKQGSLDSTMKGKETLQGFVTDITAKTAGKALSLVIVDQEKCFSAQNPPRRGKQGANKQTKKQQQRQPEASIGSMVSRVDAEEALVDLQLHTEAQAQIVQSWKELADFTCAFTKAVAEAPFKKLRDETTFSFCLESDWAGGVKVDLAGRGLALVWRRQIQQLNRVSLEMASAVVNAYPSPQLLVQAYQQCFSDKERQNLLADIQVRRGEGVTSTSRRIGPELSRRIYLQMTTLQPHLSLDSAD
The test is described as follows: Gel-based in vitro nuclease assay: cleavage of 3′flap DNA by purified MUS81–EME1. In kind it is biochemical. On the procedure: To identify the small-molecule inhibitors of MUS81, we used two complementary screening approaches. The first involved a structure-based virtual screening, where over 140,000 small molecules were docked into the active site of MUS81 using AutoDock Vina software. […] The cleavage by purified MUS81-EME1 was monitored by gel electrophoresis, and the compound activity was quantified by measuring the reduction in cleavage product intensity.
Nuclease assays were performed in reaction buffer containing 50 mM Tris pH 7.5, 10 mM MgCl2, 1 mM DTT, 85 mM KCl, and 20% glycerol. Purified MUS81–EME1 (1 nM) was preincubated in 9 μL reaction with indicated concentrations of inhibitors for 15 min at room temperature, followed by the addition of 3 nM of a 3′flap DNA substrate (listed in Supplementary Table 9) and a further incubation for 15 min at 37 °C. The final concentration of DMSO in the reactions was 2%. The reactions were stopped by the addition of 0.1% SDS and 500 μg/mL of proteinase K, followed by incubation for 5 min at 37 °C. […] The fluorescent DNA was visualized using a FLA-9000 (Fujifilm). Bands corresponding to cleaved substrates were selected for quantification using the MultiGauge 3.2 software. Final data represent integrated density of these bands with background subtraction. Fitting of the data with sigmoid curves was performed in OriginPro (OriginLab).

For test [1], the target named is T2, MUS81–EME1 binding to 3′ flap DNA substrate (Homo sapiens, UniProt Q96NY9).
T2 construct: The MUS81–EME1 full-length expression plasmid was obtained from Stephen C; West; made in house; host or cells: Escherichia coli
T2 sequence (Q96NY9 1-551): T1 sequence (Q96NY9 1-551)
T2 sequence (Q96AY2 1-570 partner): T1 sequence (Q96AY2 1-570 partner)
The test is described as follows: Electrophoretic mobility shift assay (EMSA). The conditions noted are these: MUS81–EME1 160 nM, no MgCl2. A general note: A gel shift assay detects complexes by their altered migration in electrophoresis.
Description: (A,B) Purified MUS81–EME1 (160 nM) was incubated with increasing concentrations of MU262, MU876, or their respective control analogues, followed by the addition of 3 nM fluorescently labeled 3′ flap DNA substrate. MgCl2 was omitted from the reaction buffer to prevent substrate cleavage. The reaction products were resolved on a native PAGE gel. The lower band represents a free DNA substrate, while the upper smear corresponds to the MUS81–DNA complex. n = 3.
Purified MUS81–EME1 (160 nM) was incubated in a modified assay buffer without MgCl2 (50 mM Tris–HCl pH 7.4, 150 mM NaCl, and 0.05% Tween-20) with 15 nM of a 3′flap DNA substrate (listed in Supplementary Table 5) in the absence or presence of selected inhibitors at RT for 10 min, followed by an incubation at 25 °C for 10 min. The reaction was stopped on ice and products were resolved using native PAGE (7.5% acrylamide gel in 0.5% TBE) at 4 °C for 50 min (6.5 V/cm). Gel images were captured using a FLA-9000 (Fujifilm) and Typhoon (Amersham) scanners and quantified with Multi Gauge V3.2 software (Fujifilm).

The subject of the next test is CAL51 WT cells. Briefly: Long-term cell survival assay (retreatment twice a week). Conditions: 1–3 μM, treated twice a week for almost 3 weeks. In kind it is cell-based. The protocol:
To evaluate the long-term effects of the inhibitors on the cellular viability, we treated cells twice a week for almost 3 weeks with low doses of MU262 and MU876.
CAL51 WT cells were treated with DMSO, MU262 = 18, MU876 = 32, nontargeting siRNA, or siRNA targeting MUS81. Cells were trypsinized, counted, and replated twice a week and retreated with inhibitors or siRNA with every passage. The cell number was plotted at each time point. Data were plotted in Graphpad Prism (GraphPad Software) and a 2-way ANOVA test was used to assess significance.

Molecules are shown by their SMILES.

Consider `CCc1nn2c(O)c(-c3nc4ccccc4[nH]3)nnc2c1-c1ccc(F)cc1` [Compound 18, 3-(1H-Benzo[d]imidazole-2-yl)-7-ethyl-8-(4-fluorophenyl)pyrazolo[5,1-c][1,2,4]triazin-4-ol], for which the half-inhibitory concentration (IC50) was less than 1000 nM on MUS81–EME1 (Table 1, in vitro); 870 nM against MUS81–EME1 (text and figures, MUS81–EME1 1 nM, 3 nM 3′ flap DNA). In test [1], the “effect on MUS81–EME1 binding to 3′ flap DNA (EMSA)” value was “neither MU262 nor its inactive analogue MU1066 disrupted the MUS81–DNA interaction”. Also, the long-term viability result in the test on CAL51 WT cells is given as “significant reduction in viability”.
